Article PMC6017552, “Interaction between Saikosaponin D, Paeoniflorin, and Human Serum Albumin” (Molecules : A Journal of Synthetic Chemistry and Natural …, 2018)

Target: T1, human serum albumin (HSA) (Homo sapiens, UniProt P02768)
T1 construct: gene ALB; mature full-length, 585 residues, 66500 Da, single chain
Experiment: intrinsic fluorescence quenching, double-log plot
Format: binding
Settings: 20 °C, 0.01 M PBS pH 7.4, 1 μM HSA, 0-18 nM ligand, λex 280 nm
Text: intrinsic fluorescence quenching, double-log plot on human serum albumin (HSA)

T1 sequence (P02768 25-609): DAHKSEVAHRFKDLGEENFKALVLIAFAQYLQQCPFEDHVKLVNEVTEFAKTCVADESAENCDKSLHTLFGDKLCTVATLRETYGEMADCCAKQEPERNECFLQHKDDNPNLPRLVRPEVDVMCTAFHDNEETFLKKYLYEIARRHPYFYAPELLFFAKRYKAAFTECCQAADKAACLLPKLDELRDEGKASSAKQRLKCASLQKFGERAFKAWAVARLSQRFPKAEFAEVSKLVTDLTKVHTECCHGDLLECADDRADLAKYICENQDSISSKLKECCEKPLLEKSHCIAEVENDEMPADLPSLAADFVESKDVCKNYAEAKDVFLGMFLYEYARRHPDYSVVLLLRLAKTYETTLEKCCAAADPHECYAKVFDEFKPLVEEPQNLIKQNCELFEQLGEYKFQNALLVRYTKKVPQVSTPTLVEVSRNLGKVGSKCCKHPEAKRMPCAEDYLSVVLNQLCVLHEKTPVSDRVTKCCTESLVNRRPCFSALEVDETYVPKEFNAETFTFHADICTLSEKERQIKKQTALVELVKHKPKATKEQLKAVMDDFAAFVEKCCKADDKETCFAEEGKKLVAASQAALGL

Which “Ka (mol.L^-1) ± SD” value does the source give for C[C@@]12C[C@@]3(O)O[C@@H](O1)[C@]1(COC(=O)c4ccccc4)[C@H]3C[C@@]12O[C@@H]1O[C@H](CO)[C@@H](O)[C@H](O)[C@H]1O [paeoniflorin] here?
The value was 7.39 × 10^4 ± 0.174 mol·L^-1.
